Source: patent US6737383B1, “Herbicidal oxadiazolidines” (priority 1999, dated 2004)

Key:
crabgrass = test: Test B pre/postemergence crabgrass; format: in vivo, Digitaria sanguinalis
Procedure, shortened: (§1)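 Test chemicals in a non-phytotoxic solvent mixture with surfactant were sprayed preemergence onto planted seeds and postemergence onto plants 2 to 18 cm tall (1- to 4-leaf stage). After twelve to sixteen days in a greenhouse, injury was visually rated against untreated controls from 0 (no effect) to 10 (complete control).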

giant foxtail = test: Test B pre/postemergence giant foxtail; format: in vivo, Setaria faberii
Procedure, shortened: as §1

soybean = test: Test B pre/postemergence soybean; format: in vivo, Glycine max
Procedure, shortened: as §1

sugar beet = test: Test B pre/postemergence sugar beet; format: in vivo, Beta vulgaris
Procedure, shortened: as §1

[1] = Postemergence, Rate 125 g/ha, scale 0 to 10, 0 is no effect, 10 is complete control
[2] = Preemergence, Rate 62 g/ha, scale 0 to 10 (0 no effect, 10 complete control)
[3] = Preemergence, Rate 125 g/ha, scale 0 to 10, 0 is no effect, 10 is complete control
[4] = Preemergence, Rate 500 g/ha, scale of 0 to 10 where 0 is no effect and 10 is complete control
[5] = Rate 250 g/ha, Postemergence, scale of 0 to 10 where 0 is no effect and 10 is complete control
[6] = Postemergence, Rate 62 g/ha, scale of 0 to 10, 0 is no effect, 10 is complete control
[7] = Postemergence, Rate 500 g/ha, scale 0 to 10, 0 is no effect, 10 is complete control
[8] = Postemergence, Rate 500 g/ha, scale of 0 to 10 where 0 is no effect and 10 is complete control

SMILES	Crabgrass plant response rating (crabgrass; [1])	Crabgrass plant response rating (crabgrass; [2])	Crabgrass plant response rating (crabgrass; [3])	Crabgrass plant response rating (0 to 10 scale) (crabgrass; Preemergence, Rate 250 g/ha)	Crabgrass plant response rating (crabgrass; [4])	Plant response rating, Crabgrass (crabgrass; [5])	Giant foxtail plant response rating (giant foxtail; [6])	Giant foxtail plant response rating (giant foxtail; [1])	Giant foxtail plant response rating (giant foxtail; [2])	Giant foxtail plant response rating (giant foxtail; [3])	Giant foxtail plant response rating (0 to 10 scale) (giant foxtail; Preemergence, Rate 250 g/ha)	Giant foxtail plant response rating (giant foxtail; [4])	Plant response rating, Giant foxtail (giant foxtail; [5])	Soybean plant response rating (soybean; [2])	Soybean plant response rating (soybean; [3])	Soybean plant response rating (0 to 10 scale) (soybean; Preemergence, Rate 250 g/ha)	Soybean plant response rating (soybean; [4])	Plant response rating, Soybean (soybean; [5])	Sugarbeets plant response rating (sugar beet; [2])	Sugarbeets plant response rating (sugar beet; [3])	also measured
CC(C)N(C(=O)n1oc(=O)n(CC2CCC2)c1=O)c1ccc(Cl)cc1 [Compound 550]	7	4	10	10	10	10	2	6	7	9	10	10	9	0	0	0	0	3	0	0	Plant response rating, Giant foxtail (giant foxtail; [7]): 9; Soybean plant response rating (soybean; [6]): 2; Soybean plant response rating (soybean; [1]): 2; Plant response rating, Soybean (soybean; [7]): 3; Sugarbeets plant response rating (sugar beet; [6]): 0; Sugarbeets plant response rating (sugar beet; [1]): 0; Plant response rating, Sugarbeets (sugar beet; [7]): 5; Sugarbeets plant response rating (0 to 10 scale) (sugar beet; Preemergence, Rate 250 g/ha): 5; Sugarbeets plant response rating (sugar beet; [4]): 8; Plant response rating, Sugarbeets (sugar beet; [5]): 2
CC(C)N(C(=O)n1oc(=O)n(CCc2ccccc2)c1=O)c1ccccc1 [Compound 567]	7	0	9	9	9	7	0	0	3	9	10	9	0	0	0	0	0	4	0	0	Crabgrass plant response rating (crabgrass; [6]): 3; Plant response rating, Crabgrass (crabgrass; [8]): 8; Plant response rating, Giant foxtail (giant foxtail; [8]): 0; Plant response rating, Soybean (soybean; [8]): 6; Plant response rating, Sugarbeets (sugar beet; [8]): 0; Sugarbeets plant response rating (0 to 10 scale) (sugar beet; Preemergence, Rate 250 g/ha): 0; Sugarbeets plant response rating (sugar beet; [4]): 2; Plant response rating, Sugarbeets (sugar beet; [5]): 0
